A value given as a limit tells only on which side of the number the result lay.

Data set [1] in a line: Cytotoxicity, MTT assay, Jb6 Cl 41-5a normal epithelial cells. As to conditions: mouse, Jb6 Cl 41-5a normal epithelial cells. Background: Tetrazolium assays rely on reduction of a dye to a coloured formazan, in cell work by metabolically active cells.
In a further data set the test system is S. aureus ATCC 21027. Briefly: Agar diffusion method, S. aureus. In kind it is cell-based, Staphylococcus aureus. Particulars: Staphylococcus aureus, ATCC21027, 24 h, 100 µg/well, 24 h, incl. 7 mm well; read-out: Diameter of Zone Inhibition, S. aureus. The protocol: (§1) Elyakov Pacific Institute of Bioorganic Chemistry, Far East Branch, Russian Academy of Sciences. Test substances were dissolved in DMSO at concentrations of 1.0, 0.1, and 0.01 mg/mL. All strains were grown on trypticase-soy agar TSA (BBL) at 37 °C. […] After incubation of the dishes at 37 °C for 24 h (for bacteria) and 48 h (for the fungus) at 28 °C, the diameters of the growth inhibition zones of pathogenic microorganisms (mm) were measured, including the diameter of the wells. Commercial antibacterial drugs (vancomicin and gentamicin) and antifungal (clotrimazol) drugs were used as positive controls.
A general note: Agar diffusion results depend on both activity and mobility in agar.

For data set [2], the system named is mouse ascites Ehrlich carcinoma. Briefly: Cytotoxicity, nonspecific esterase (FDA) assay, ascites Ehrlich carcinoma cells. Particulars: Mus musculus, Ehrlich, 24 h, read-out: Cytotoxicity (EC50), Ascites Ehrlich Carcinoma.
The subject of another data set is E. coli K-12. The experiment in a line: Agar diffusion method, E. coli. In kind it is cell-based, Escherichia coli. Particulars: Escherichia coli, K12; 100 µg/well; read-out: Diameter of Zone Inhibition, E. coli. The protocol:
as §1

In data set [3] the test system is human cervical cancer (HeLa). The experiment in a line: Cytotoxicity, MTT assay, HeLa cells. As to conditions: Homo sapiens, HeLa, 24 h, read-out: Cytotoxicity (EC50), HeLa.
The subject of the next data set is P. aeruginosa ATCC 27853. Briefly: Agar diffusion method, P. aeruginosa. It counts as cell-based, Pseudomonas aeruginosa. Particulars: Pseudomonas aeruginosa, ATCC27853, 100 µg/well; read-out: Diameter of Zone Inhibition, P. aeruginosa. How it is done:
as §1

The next data set deals with B. cereus ATCC 10702. Briefly: Agar diffusion method, B. cereus. As to conditions: Bacillus cereus, ATCC10702, 24 h, 100 µg/well, 24 h, incl. 7 mm well; read-out: Diameter of Zone Inhibition, B. cereus. It counts as cell-based, Bacillus cereus. How it is done:
as §1

The test system of data set [4] is mouse neuroblastoma (Neuro 2a). The experiment in a line: Cytotoxicity, MTT assay, Neuro 2a cells. As to conditions: N2a, 24 h, read-out: Cytotoxicity (EC50), Neuro 2a.
A further data set has as its system C. albicans KMM 453. Briefly: Agar diffusion method, C. albicans. It counts as cell-based. As to conditions: Candida albicans, KMM453, 48 h, 100 µg/well, 48 h at 28 °C; read-out: Diameter of Zone Inhibition, C. albicans. The protocol:
as §1

For orientation: EC50 means the concentration giving half of the maximal effect. What is called zone of inhibition is the size of the clear area around the sample on an inoculated plate. For orientation: melting point means the temperature, or range, at which the solid turns liquid. As to `COc1ccc(OC)c2c1C(=O)C1=C(S[C@@H]3O[C@H](CO)[C@@H](O)[C@H](O)[C@H]3O1)C2=O` [Compound 17a, (2R,3S,4S,4aR,12aS)-3,4-Dihydroxy-2-hydroxymethyl-7,10-dimethoxy-3,4,4a,12a-tetrahydro-2H-naphtho[2,3-b]pyrano[2,3-e][2,5]oxathiine-6,11-dione], the melting point was 332 to 335 °C. For the same compound, the EC50 at 24 h in data set [1] is above 25 µM. Also, in the data set with S. aureus ATCC 21027, the zone of inhibition at 100 µg/disc was determined as 0 mm. Besides, the EC50 in data set [2] is above 25 µM. In addition, in the data set on E. coli K-12, the zone of inhibition at 100 µg/disc worked out at 0 mm. Moreover, the EC50 in data set [3] is above 25 µM. In addition, the zone of inhibition at 100 µg/disc in the data set on P. aeruginosa ATCC 27853 was determined as 0 mm. Besides, the zone of inhibition at 100 µg/disc in the data set with B. cereus ATCC 10702 came to 0 mm. In addition, in [4], the EC50 was above 25 µM. Moreover, the zone of inhibition at 100 µg/disc in the data set on C. albicans KMM 453 is 0 mm.
`COc1ccc(OC)c2c1C(=O)C1=C(S[C@@H]3OC[C@H](O)[C@H](O)[C@H]3O1)C2=O` [Compound 17d, (3S,4S,4aR,12aS)-3,4-Dihydroxy-7,10-dimethoxy-3,4,4a,12a-tetrahydro-2H-naphtho[2,3-b]pyrano[2,3-e][2,5]oxathiine-6,11-dione] had a melting point of 317 to 320 °C. In addition, in [1], the concentration for a half-maximal effect (EC50) at 24 h was above 25 µM. Further, in the data set on S. aureus ATCC 21027, the zone of inhibition at 100 µg/disc was determined as 0 mm. The half-maximal effective concentration (EC50) in data set [2] was above 25 µM. In the data set with E. coli K-12, the zone of inhibition at 100 µg/disc is 0 mm. In addition, the EC50 in data set [3] was above 25 µM. Moreover, the zone of inhibition at 100 µg/disc in the data set with P. aeruginosa ATCC 27853 is 0 mm. Besides, in the data set with B. cereus ATCC 10702, the zone of inhibition at 100 µg/disc came out at 0 mm. Further, in data set [4], the EC50 is above 25 µM. The zone of inhibition at 100 µg/disc in the data set on C. albicans KMM 453 was at most 10 mm.

The record behind these values is paper PMC7463537, “Synthesis and Evaluation of Antimicrobial and Cytotoxic Activity of Oxathiine-Fused Quinone-Thioglucoside Conjugates of Substituted 1,4-Naphthoquinones” (Molecules, 2020).
